Read-outs that look alike come from different tables or passages of the source.
Columns and labels:
[1] = molecular target: recombinant poly(ADP-ribose) polymerase 2 (PARP2) (Homo sapiens, UniProt Q9UGN5); assay: PARP2 chemiluminescent assay; assay type: biochemical; settings: inhibition of PARP2 enzyme activity, chemiluminescence
[2] = tested on: MDA-MB-436 cells; assay: Growth inhibition assay against BRCA mutant human breast cancer MDA-MB-436 cell line (CCK-8); assay type: cell-based; settings: Homo sapiens, MDA-MB-436, […], proliferation of MDA-MB-436 cells, 7 days
[3] = molecular target: PDE3A (Homo sapiens (Human), UniProt Q14432); assay: PDE3A fluorescence polarization (FP) assay; assay type: biochemical; settings: PDE3A enzyme activity, FAM-cAMP substrate
[4] = molecular target: recombinant poly(ADP-ribose) polymerase 2 (PARP2); assay: PARP2 chemiluminescent assay; assay type: biochemical; settings: inhibition of PARP2 enzyme activity, chemiluminescence
[5] = molecular target: T1, recombinant poly(ADP-ribose) polymerase 1 (PARP1) (Homo sapiens (Human), UniProt P09874)
[6] = molecular target: T1, recombinant poly(ADP-ribose) polymerase 1 (PARP1); assay: biochemical

Sequence of recombinant poly(ADP-ribose) polymerase 2 (PARP2) (Homo sapiens, UniProt Q9UGN5) (Q9UGN5 whole entry, looked up): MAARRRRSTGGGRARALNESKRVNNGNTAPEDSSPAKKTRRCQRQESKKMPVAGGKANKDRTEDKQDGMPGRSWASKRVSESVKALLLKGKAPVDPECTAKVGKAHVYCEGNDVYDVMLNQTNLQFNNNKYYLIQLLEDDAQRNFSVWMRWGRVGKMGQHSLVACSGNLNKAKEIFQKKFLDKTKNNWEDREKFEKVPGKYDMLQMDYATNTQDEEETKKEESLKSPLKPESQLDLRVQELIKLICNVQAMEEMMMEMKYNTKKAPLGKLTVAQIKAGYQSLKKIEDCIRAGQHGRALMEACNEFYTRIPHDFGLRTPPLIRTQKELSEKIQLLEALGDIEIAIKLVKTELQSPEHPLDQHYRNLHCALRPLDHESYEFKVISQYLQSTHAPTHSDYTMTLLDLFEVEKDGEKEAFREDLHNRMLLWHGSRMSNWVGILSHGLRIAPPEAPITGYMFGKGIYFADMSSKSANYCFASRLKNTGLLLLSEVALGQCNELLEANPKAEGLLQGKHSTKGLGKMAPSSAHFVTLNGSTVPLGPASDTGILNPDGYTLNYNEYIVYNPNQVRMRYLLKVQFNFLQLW
T1 sequence (P09874 whole entry): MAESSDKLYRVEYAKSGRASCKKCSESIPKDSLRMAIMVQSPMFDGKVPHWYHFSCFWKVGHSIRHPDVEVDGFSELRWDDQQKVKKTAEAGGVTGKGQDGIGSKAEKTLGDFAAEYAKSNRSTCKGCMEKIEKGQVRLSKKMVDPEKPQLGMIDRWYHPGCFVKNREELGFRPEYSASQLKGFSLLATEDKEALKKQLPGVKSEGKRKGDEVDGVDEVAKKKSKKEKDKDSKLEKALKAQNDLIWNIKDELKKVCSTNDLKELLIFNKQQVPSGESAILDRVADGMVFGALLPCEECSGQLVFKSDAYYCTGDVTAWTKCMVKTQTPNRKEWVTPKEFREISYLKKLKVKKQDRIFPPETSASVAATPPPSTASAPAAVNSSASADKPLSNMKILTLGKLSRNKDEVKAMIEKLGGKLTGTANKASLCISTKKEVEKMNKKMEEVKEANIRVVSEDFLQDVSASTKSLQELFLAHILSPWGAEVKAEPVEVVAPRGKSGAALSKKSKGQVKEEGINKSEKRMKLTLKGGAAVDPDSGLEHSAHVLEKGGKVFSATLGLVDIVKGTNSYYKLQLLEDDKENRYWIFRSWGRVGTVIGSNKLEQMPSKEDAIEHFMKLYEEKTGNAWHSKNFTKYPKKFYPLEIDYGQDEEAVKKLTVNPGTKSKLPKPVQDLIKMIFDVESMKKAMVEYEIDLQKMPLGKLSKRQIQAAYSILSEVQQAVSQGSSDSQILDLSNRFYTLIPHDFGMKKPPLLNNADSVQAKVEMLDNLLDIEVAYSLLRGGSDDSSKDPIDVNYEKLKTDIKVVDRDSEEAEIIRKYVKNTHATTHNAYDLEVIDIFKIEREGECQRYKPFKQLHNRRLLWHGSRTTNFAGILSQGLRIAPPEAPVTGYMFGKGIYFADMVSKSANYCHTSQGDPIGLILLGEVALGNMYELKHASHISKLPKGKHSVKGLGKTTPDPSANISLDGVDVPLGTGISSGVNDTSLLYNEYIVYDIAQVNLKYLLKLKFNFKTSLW
Sequence of PDE3A (Q14432 whole entry): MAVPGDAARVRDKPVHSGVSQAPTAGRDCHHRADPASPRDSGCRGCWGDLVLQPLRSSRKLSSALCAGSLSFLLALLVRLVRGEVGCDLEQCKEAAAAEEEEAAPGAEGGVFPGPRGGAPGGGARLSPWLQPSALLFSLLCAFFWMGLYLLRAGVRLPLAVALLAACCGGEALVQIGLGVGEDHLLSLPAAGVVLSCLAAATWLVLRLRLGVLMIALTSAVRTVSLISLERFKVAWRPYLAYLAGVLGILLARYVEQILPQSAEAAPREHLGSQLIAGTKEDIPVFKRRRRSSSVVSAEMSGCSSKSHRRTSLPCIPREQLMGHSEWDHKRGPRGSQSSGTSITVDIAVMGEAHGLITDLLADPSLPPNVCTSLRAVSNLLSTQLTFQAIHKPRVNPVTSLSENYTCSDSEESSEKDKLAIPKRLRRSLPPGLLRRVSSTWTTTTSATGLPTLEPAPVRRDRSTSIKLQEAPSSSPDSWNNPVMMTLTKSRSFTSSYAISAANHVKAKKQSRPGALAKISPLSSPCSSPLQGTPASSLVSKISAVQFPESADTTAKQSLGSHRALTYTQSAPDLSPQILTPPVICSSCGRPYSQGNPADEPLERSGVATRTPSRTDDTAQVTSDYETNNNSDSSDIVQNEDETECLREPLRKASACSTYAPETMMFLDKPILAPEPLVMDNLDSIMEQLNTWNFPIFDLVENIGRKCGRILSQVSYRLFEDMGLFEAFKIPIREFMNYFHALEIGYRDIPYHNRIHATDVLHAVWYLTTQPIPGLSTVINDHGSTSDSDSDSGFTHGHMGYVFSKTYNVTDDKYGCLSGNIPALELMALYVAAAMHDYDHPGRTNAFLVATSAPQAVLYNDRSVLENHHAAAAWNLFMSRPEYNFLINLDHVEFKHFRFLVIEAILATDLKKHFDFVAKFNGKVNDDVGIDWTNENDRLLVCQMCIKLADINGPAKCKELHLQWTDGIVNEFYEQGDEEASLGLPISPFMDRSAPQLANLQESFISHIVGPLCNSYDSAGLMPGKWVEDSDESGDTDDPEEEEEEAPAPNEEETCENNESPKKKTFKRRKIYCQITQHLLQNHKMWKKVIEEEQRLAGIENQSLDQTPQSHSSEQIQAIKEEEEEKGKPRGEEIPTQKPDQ

Structure (SMILES) | IC50 [1] [nM] | IC50 [2] [nM] | IC50 [3] [nM] | IC50 [4] [nM] | IC50 [5] [nM] | IC50 [6] [nM]
CNC(=O)c1ccc(C2=CCN(Cc3ccc4c([nH]c(=O)c5c(C)cnn54)c3F)CC2)cn1 [Example 152, 6-fluoro-3-methyl-7-((6-methylcarbamoyl-3′,6′-dihydro-[3,4′-bipyridin]-1′(2′H)-yl)methyl)pyrazolo[1,5-a]quinoxalin-4(5H)-one] | > 1110 | 19.3 | > 25000 |  |  | 
CNC(=O)c1ccc(C2=CCN(Cc3ccc4c([nH]c(=O)c5c(C)cnn54)c3F)CC2)c(F)n1 [Example 165, 6-fluoro-7-((2-fluoro-6-methylcarbamoyl-3′,6′-dihydro-[3,4′-bipyridin]-1′(2′H)-yl)methyl)-3-methylpyrazolo[1,5-a]quinoxalin-4(5H)-one] | > 3330 | 2.75 |  |  | 0.26 | 
CNC(=O)c1ccc(N2CCN(Cc3ccc4c([nH]c(=O)c5c(C(F)(F)F)cnn54)c3F)CC2)c(F)n1 [Example 179, 7-((4-(2-fluoro-6-(methylcarbamoyl)pyridin-3-yl)piperazin-1-yl)methyl)-3-trifluoromethyl-6-fluoropyrazolo[1,5-a]quinoxalin-4(5H)-one] |  | 4.49 | > 30000 | 67.1 | 0.5 | 
CNC(=O)c1ccc(N2CCN(Cc3cc4[nH]c(=O)c5c(F)cnn5c4cc3F)CC2)c(F)n1 [Example 182, 7-((4-(2-fluoro-6-(methylcarbamoyl)pyridin-3-yl)piperazin-1-yl)methyl)-3,8-difluoropyrazolo[1,5-a]quinoxalin-4(5H)-one] |  | 1.4 | > 30000 | 93.5 | 0.32 | 
Cc1cnn2c1c(=O)[nH]c1c(F)c(CN3CCN(c4ccc(C(=O)NC5CC5)nc4F)CC3)ccc12 [Example 126, 7-((4-(2-fluoro-6-(cyclopropylcarbamoyl)pyridin-3-yl)piperazin-1-yl)methyl)-6-fluoro-3-methylpyrazolo[1,5-a]quinoxalin-4(5H)-one] |  | 4.5 | > 25000 | 731 | 0.48 | 
O=C(NCC(F)F)c1ccc(N2CCN(Cc3ccc4c([nH]c(=O)c5occc54)c3F)CC2)c(F)n1 [Example 147, 6-fluoro-7-((4-(2-fluoro-6-(2,2-difluoroethylcarbamoyl)pyridin-3-yl)piperazin-1-yl)methyl)furo[2,3-c]quinolin-4(5H)-one] | 2400 | 2 | 10900 |  |  | 0.56
Cc1cnn2c1c(=O)[nH]c1c(F)c(CN3CCN(c4ccc(C(=O)NCC(F)F)nc4F)CC3)ccc12 [Example 129, 7-((4-(2-fluoro-6-(2,2-difluoroethylcarbamoyl)pyridin-3-yl)piperazin-1-yl)methyl)-6-fluoro-3-methylpyrazolo[1,5-a]quinoxalin-4(5H)-one] |  | 5.02 | > 30000 | > 10000 | 0.5 | 
CNC(=O)c1ccc(C2CCN(Cc3ccc4c([nH]c(=O)c5occc54)c3F)CC2)c(F)n1 [Example 109, 7-((4-(2-fluoro-6-(methylcarbamoyl)pyridin-3-yl)piperidin-1-yl)methyl)-6-fluorofuro[2,3-c]quinolin-4(5H)-one] | 5370 | 5.09 |  |  |  | 0.83
CCNC(=O)c1ccc(N2CCN(Cc3ccc4c([nH]c(=O)c5c(F)cnn54)c3F)CC2)c(F)n1 [Example 180, 7-((4-(2-fluoro-6-(ethylcarbamoyl)pyridin-3-yl)piperazin-1-yl)methyl)-3,6-difluoropyrazolo[1,5-a]quinoxalin-4(5H)-one] |  | 1.24 | > 30000 | 431 | 0.24 | 
CNC(=O)c1ccc(N2CCN(Cc3ccc4c([nH]c(=O)c5c(C)cnn54)c3F)CC2)c(C#N)n1 [Example 128, 7-((4-(2-cyano-6-(methylcarbamoyl)pyridin-3-yl)piperazin-1-yl)methyl)-6-fluoro-3-methylpyrazolo[1,5-a]quinoxalin-4(5H)-one] |  | 1.58 | > 30000 | 2500 | 0.48 | 
CNC(=O)c1ccc(C2=CCN(Cc3ccc4c([nH]c(=O)c5c(F)cnn54)c3F)CC2)c(F)n1 [Example 197, 7-((2-fluoro-6-methylcarbamoyl-3′,6′-dihydro-[3,4′-bipyridin]-1′(2′H)-yl)methyl)-3,6-difluoropyrazolo[1,5-a]quinoxalin-4(5H)-one] | 774 | 1.19 |  |  | 0.15 | 

More lines, now with the values ahead:

IC50 [1] [nM] | IC50 [2] [nM] | IC50 [3] [nM] | IC50 [4] [nM] | IC50 [5] [nM] | IC50 [6] [nM] | Structure (SMILES)
16.9 | 3.73 |  |  |  |  | CNC(=O)c1ccc(N2CCN(Cc3cc(F)c4c(c3)[nH]c(=O)c3sccc34)CC2)c(C)n1 [Example 38, 9-fluoro-7-((4-(2-methyl-6-(methylcarbamoyl)pyridin-3-yl)piperazin-1-yl)methyl)thieno[2,3-c]quinolin-4(5H)-one]
54.9 |  |  |  |  |  | CNC(=O)c1ccc(N2CCN(Cc3ccc4c(c3)[nH]c(=O)c3cnn(C)c34)CC2)c(C)n1 [Example 8, 7-((4-(2-methyl-6-(methylcarbamoyl)pyridin-3-yl)piperazin-1-yl)methyl)-1-methyl-1,5-dihydro-4H-pyrazolo[4,3-c]quinolin-4-one]
13.3 |  |  |  |  |  | CNC(=O)c1ccc(N2CCN(Cc3cc(F)c4c(c3)[nH]c(=O)c3cscc34)CC2)c(C)n1 [Example 21, 7-((4-(2-methyl-6-(methylcarbamoyl)pyridin-3-yl)piperazin-1-yl)methyl)-9-fluorothieno[3,4-c]quinolin-4(5H)-one]
18.3 |  |  |  |  |  | CNC(=O)c1ccc(N2CCN(Cc3ccc4c(c3)[nH]c(=O)c3cscc34)CC2)c(C)n1 [Example 3, 7-((4-(2-methyl-6-(methylcarbamoyl)pyridin-3-yl)piperazin-1-yl)methyl)thieno[3,4-c]quinolin-4(5H)-one]
78 |  |  |  |  |  | CNC(=O)c1ccc(N2CCN(Cc3ccc4c(c3)[nH]c(=O)c3ccsc34)CC2)c(C)n1 [Example 1, 7-((4-(2-methyl-6-(methylcarbamoyl)pyridin-3-yl)piperazin-1-yl)methyl)thieno[3,2-c]quinolin-4(5H)-one]
 | 4.72 | 22000 | 1870 | 0.52 |  | CNC(=O)c1ccc(N2CCN(Cc3ccc4c([nH]c(=O)c5occc54)c3F)CC2)c(Cl)n1 [Example 68, 7-((4-(2-chloro-6-(methylcarbamoyl)pyridin-3-yl)piperazin-1-yl)methyl)-6-fluorofuro[2,3-c]quinolin-4(5H)-one]
10.1 |  |  |  |  |  | CNC(=O)c1ccc(N2CCN(Cc3ccc4c(c3)[nH]c(=O)c3sccc34)CC2)c(C)n1 [Example 5, 7-((4-(2-methyl-6-(methylcarbamoyl)pyridin-3-yl)piperazin-1-yl)methyl)thieno[2,3-c]quinolin-4(5H)-one]
 | 2.99 | > 30000 | > 10000 | 1.38 |  | CNC(=O)c1ccc(N2CCN(Cc3ccc4c([nH]c(=O)c5c(C)cnn54)c3F)CC2)c(F)n1 [Example 58, 7-((4-(2-fluoro-6-(methylcarbamoyl)pyridin-3-yl)piperazin-1-yl)methyl)-6-fluoro-3-methylpyrazolo[1,5-a]quinoxalin-4(5H)-one]
 | 3.41 | 13800 | 340 | 0.47 |  | CNC(=O)c1ccc(N2CCN(Cc3ccc4c([nH]c(=O)c5cocc54)c3F)CC2)c(F)n1 [Example 115, 7-((4-(2-fluoro-6-(methylcarbamoyl)pyridin-3-yl)piperazin-1-yl)methyl)-6-fluorofuro[3,4-c]quinolin-4(5H)-one]
 | 3.85 | 16500 | 898 | 0.41 |  | CNC(=O)c1ccc(N2CCN(Cc3ccc4c([nH]c(=O)c5ccoc54)c3F)CC2)c(F)n1 [Example 44, 7-((4-(2-fluoro-6-(methylcarbamoyl)pyridin-3-yl)piperazin-1-yl)methyl)-6-fluoro-furo[3,2-c]quinolin-4(5H)-one]
 | 8.02 | > 30000 | 145 | 0.61 |  | CNC(=O)c1ccc(N2CCN(Cc3cc4[nH]c(=O)c5c(C)cnn5c4cc3F)CC2)c(F)n1 [Example 168, 8-fluoro-7-((4-(2-fluoro-6-(methylcarbamoyl)pyridin-3-yl)piperazin-1-yl)methyl)-3-methylpyrazolo[1,5-a]quinoxalin-4(5H)-one]
 | 1.58 | 630 | 93.5 | 0.32 |  | CNC(=O)c1ccc(N2CCN(Cc3cc(F)c4c(c3)[nH]c(=O)c3c(F)cnn34)CC2)c(F)n1 [Example 177, 3,9-difluoro-7-((4-(2-fluoro-6-(methylcarbamoyl)pyridin-3-yl)piperazin-1-yl)methyl)pyrazolo[1,5-a]quinoxalin-4(5H)-one]
 | 4.58 | > 30000 | 1980 | 1.76 |  | CNC(=O)c1ccc(N2CCN(Cc3ccc4c([nH]c(=O)n5cccc45)c3F)CC2)c(C)n1 [Example 48, 8-((4-(2-methyl-6-(methylcarbamoyl)pyridin-3-yl)piperazin-1-yl)methyl)-7-fluoropyrrolo[1,2-c]quinazolin-5(6H)-one]
 | 1.72 | 10500 | 2820 | 1.06 |  | CNC(=O)c1ccc(N2CCN(Cc3ccc4c([nH]c(=O)c5c(F)cnn54)c3F)CC2)c(C)n1 [Example 121, 7-((4-(2-methyl-6-(methylcarbamoyl)pyridin-3-yl)piperazin-1-yl)methyl)-3,6-difluoropyrazolo[1,5-a]quinoxalin-4(5H)-one]
